# Values quoted from earlier work as cited in patent US11638760B2, “Pyrrolobenzodiazepine antibody conjugates” (priority 2017, dated 2023).
# Conditions: Phase I clinical evaluation
smiles,measurement,value
C=C1C[C@H]2C=Nc3cc(OCCCOc4cc5c(cc4OC)C(=O)N4CC(=C)C[C@H]4C=N5)c(OC)cc3C(=O)N2C1 [SJG-136],maximum tolerated dose,45 μg/m
